Active and inactive are the calls of the source. Cut-off read from the data, not from the text of the source, for most assays here: actives have a measured EC50 and inactives only a lower limit.
Assays:
[1] = Luminescence Cell-Based Dose Confirmation HTS to Identify Activators of 5'UTR Stem-Loop Driven Alpha-Synuclein mRNA Translation in H4 Neuroglioblastoma Cells. [Related pubchem assays: 1829 (Project Summary), 1814 (Primary HTS)]; format: functional
[2] = Luminescence Cell-Based Dose Response HTS to Identify Activators of Luciferase Translation or Activity in H4 […] Cells. [Related pubchem assays: 1829 (Project Summary), 1814 (Primary HTS)]; format: functional
H4 = experiment: Luminescence Cell-Based Dose Response HTS to Identify Activators of 5'UTR Stem-Loop Driven Prion Protein mRNA Translation in H4 Neuroglioblastoma Cells. [Related pubchem assays: 1829 (Project Summary), 1814 (Primary HTS)]; format: functional; details: Homo sapiens
[3] = target: T1, Corticotropin-releasing factor receptor 2/Corticotropin-releasing factor-binding protein (Homo sapiens, UniProt P24387+Q13324); experiment: Dose Response confirmation of uHTS hits for small molecule antagonists of the CRF-binding protein and CRF-R2 receptor complex.; format: functional; details: read-out: IC50_Mean
T1 sequence (Q13324 whole entry): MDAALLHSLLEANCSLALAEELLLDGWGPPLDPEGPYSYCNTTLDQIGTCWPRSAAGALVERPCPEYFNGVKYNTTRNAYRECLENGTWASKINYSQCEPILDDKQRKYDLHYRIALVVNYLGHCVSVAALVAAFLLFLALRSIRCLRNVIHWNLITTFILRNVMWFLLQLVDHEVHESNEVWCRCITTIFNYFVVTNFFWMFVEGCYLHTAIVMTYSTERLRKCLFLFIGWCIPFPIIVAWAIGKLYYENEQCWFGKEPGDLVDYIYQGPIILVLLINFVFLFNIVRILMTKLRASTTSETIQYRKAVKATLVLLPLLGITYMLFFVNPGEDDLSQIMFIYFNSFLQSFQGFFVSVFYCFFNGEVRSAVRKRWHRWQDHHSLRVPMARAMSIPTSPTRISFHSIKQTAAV
T1 sequence (P24387 whole entry): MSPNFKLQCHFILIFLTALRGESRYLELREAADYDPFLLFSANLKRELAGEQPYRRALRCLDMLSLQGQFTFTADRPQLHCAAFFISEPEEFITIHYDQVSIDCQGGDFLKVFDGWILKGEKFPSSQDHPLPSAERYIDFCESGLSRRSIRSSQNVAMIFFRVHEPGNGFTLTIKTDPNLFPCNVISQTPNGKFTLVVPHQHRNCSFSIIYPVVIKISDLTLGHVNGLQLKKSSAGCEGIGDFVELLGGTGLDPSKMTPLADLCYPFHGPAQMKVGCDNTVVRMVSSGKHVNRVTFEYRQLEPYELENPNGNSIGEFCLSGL

[4] = target: T1, Corticotropin-releasing factor receptor 2/Corticotropin-releasing factor-binding protein; experiment: activators of CRF receptor 2 with binding protein – uHTS hits, confirmation (AID 602473); format: functional; details: read-out: EC50_Mean
[5] = target: T2, Heat shock factor protein 1 (Mus musculus, UniProt P38532); experiment: HSF1 potentiators in luciferase reporter cells, confirmation, cell-based, NIH3T3, luminescence, dose retest (AID 435004); format: functional;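 note: stress induced by proteasome inhibitor MG132 added 30 min after compound; luciferase reporter driven by HSF1 response element in NIH3T3 cells; actives raise luminescence as potentiators of the MG132 stress response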
T2 sequence (P38532 whole entry): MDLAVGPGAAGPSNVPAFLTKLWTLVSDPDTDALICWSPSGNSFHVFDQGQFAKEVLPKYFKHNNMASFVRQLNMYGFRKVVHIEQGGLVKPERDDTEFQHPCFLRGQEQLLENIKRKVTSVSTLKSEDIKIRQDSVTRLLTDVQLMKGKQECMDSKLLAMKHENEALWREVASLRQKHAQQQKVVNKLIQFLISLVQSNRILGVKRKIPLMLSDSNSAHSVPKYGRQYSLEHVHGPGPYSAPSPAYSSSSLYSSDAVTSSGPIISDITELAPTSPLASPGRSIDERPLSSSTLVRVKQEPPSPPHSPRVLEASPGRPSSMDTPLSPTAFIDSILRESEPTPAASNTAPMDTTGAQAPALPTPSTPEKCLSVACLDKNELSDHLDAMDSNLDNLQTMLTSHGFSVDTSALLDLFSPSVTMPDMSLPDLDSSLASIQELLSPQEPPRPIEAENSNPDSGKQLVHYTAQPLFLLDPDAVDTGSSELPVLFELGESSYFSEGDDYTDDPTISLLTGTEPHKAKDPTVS

[6] = HEp-2 cell cytotoxicity, dose response, cytotoxicity control for RSV inhibitor project, HTS (AID 2410); format: functional; details: human respiratory syncytial virus
[7] = target: T2, Heat shock factor protein 1; experiment: inhibition of MG132-induced HSE-luciferase signal, confirmation, cell-based, NIH3T3, luminescence, dose retest (AID 2382); format: functional;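 note: NIH3T3 fibroblasts with HSF1-driven luciferase reporter stressed by proteasome inhibitor MG132; luminescence from HSF1-driven luciferase expression after 8 hours of MG132 stress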
INS1 = experiment: beta cell apoptosis inhibitors, cytokine rescue, dose response, luminescence, retest (AID 449756); format: functional, cell-based; details: Rattus norvegicus;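 note: cell death triggered by IL-1 beta plus TNF-alpha plus IFN-gamma mixture; protective hits raise ATP signal compared with cytokine alone wells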
[8] = inhibitors of intracellular T. cruzi replication, confirmation, NIH3T3 host cells, beta-gal luminescence (AID 2044); format: functional, cell-based;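 note: intracellular parasites grown in NIH/3T3 mouse fibroblasts as host cells; luminescent beta-galactosidase reporter signal from transgenic T. cruzi replicating inside host cells; inhibitors lower the luminescence signal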
[9] = cytotoxicity toward NIH3T3 fibroblasts, dose response, counter-screen, cell-based, ATP luminescence, mouse fibroblasts (AID 2010); format: functional;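 note: cells exposed to compound for about 90 hours before reading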
[10] = system: Streptococcus sp. 'group A'; experiment: growth inhibition of control SK(-) GAS strain, dose response, counter-screen for streptokinase expression inhibitor project, luminescence, kanamycin, BacTiterGlo, confirmation (AID 1900); format: functional, organism-based
Streptokinase A = target: T3, Streptokinase A (Streptococcus pyogenes serotype M1, UniProt P10520); experiment: S. pyogenes streptokinase expression inhibitors, potency, dose response, plasminogen activation absorbance, OD405 (AID 1914); format: functional, Streptococcus pyogenes M1 GAS;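 note: secreted streptokinase activity via plasminogen activation per viability signal from cell pellet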
T3 sequence (P10520 whole entry): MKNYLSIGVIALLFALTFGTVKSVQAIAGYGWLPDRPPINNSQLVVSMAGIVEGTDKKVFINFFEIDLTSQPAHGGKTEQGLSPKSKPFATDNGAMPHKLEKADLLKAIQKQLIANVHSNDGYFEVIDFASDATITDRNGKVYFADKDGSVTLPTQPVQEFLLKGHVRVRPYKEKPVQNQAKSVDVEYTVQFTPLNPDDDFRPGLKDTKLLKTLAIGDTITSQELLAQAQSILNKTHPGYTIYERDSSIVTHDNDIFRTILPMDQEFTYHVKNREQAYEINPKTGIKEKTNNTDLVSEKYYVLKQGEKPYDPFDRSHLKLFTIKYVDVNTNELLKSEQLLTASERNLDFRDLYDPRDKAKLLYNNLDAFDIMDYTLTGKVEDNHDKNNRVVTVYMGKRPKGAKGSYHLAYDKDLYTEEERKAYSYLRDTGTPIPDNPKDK

Streptococcus = experiment: Group A Streptococcus viability loss, dose response, counter-screen for streptokinase expression inhibitor project, luminescence, BacTiterGlo (AID 1915); format: functional, organism-based;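 note: potency for reduction of bacterial viability or growth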
Paired box protein Pax-8 = Paired box protein Pax-8 (Homo sapiens, UniProt Q06710); experiment: inhibitors of PAX8-driven TPO luciferase reporter, dose response, RMG-I cells, cherry-pick (AID 687027); format: functional, cell-based;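 note: luciferase reporter driven by Pax8 target thyroperoxidase promoter measured by SteadyGlo luminescence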
[11] = Luminescence Cell-Based Dose Retest to Confirm Inhibitors of Cancer Stem Cells. [Related pubchem assays (depositor defined):AID2717, AID2721]; format: functional; details: Homo sapiens
cells = format: functional
[12] = NIH-3T3 fibroblast cytotoxicity, dose response, cytotoxicity control, cell-based, fluorescence, Alamar Blue, secondary assay (AID 2327); format: functional;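 note: NIH-3T3 mouse fibroblasts cultured with fluconazole at 8 µg/mL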
[13] = C. albicans growth with fluconazole, confirmation, fluorescence, retest (AID 2467); format: functional, cell-based
Cytochrome P450 2C9 = Cytochrome P450 2C9 (Homo sapiens, UniProt P11712)
Chain of Cytochrome P450 2C9 (P11712 whole entry): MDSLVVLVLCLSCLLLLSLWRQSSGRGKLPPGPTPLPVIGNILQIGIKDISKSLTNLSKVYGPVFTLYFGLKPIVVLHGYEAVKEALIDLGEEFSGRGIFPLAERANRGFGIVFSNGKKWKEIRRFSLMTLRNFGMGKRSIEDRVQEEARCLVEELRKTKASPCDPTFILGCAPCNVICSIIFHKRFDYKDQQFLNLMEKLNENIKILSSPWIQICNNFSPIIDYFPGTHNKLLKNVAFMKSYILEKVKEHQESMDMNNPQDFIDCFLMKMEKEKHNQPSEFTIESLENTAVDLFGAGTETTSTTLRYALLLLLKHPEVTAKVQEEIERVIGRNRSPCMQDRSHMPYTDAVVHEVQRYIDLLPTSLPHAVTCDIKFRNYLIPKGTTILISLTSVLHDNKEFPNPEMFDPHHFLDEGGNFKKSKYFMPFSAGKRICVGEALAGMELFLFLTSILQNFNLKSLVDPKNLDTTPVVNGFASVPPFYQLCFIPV

Chain of Paired box protein Pax-8 (Q06710 whole entry): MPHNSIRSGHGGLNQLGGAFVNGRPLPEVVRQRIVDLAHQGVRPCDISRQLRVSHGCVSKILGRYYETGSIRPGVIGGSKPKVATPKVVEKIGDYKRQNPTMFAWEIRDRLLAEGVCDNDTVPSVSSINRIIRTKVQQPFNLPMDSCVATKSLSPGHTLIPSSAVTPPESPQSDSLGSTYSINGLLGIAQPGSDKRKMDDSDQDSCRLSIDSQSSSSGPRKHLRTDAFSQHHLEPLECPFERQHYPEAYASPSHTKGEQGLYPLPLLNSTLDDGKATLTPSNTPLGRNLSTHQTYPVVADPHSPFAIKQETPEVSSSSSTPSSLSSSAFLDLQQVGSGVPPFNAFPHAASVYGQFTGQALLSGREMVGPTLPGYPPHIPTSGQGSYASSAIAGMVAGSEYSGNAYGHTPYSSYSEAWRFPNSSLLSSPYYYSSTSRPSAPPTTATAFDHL

## CCc1nnc(NC(=O)c2ccc(-c3ccccc3Cl)o2)s1
[1]
  EC50: > 120 µM (not active)
[2]
  EC50: 6.73 µM (active)
H4
  EC50: 18.9 µM (active)

## CCCCON1C(=O)c2cccc3cccc(c23)C1=O
[3]
  IC50: > 47.1 µM (inactive)
[4]
  EC50: > 53 µM (inactive)

## COc1ccc(/C=C/C(=O)NCCCc2ccccc2)cc1
[5]
  EC50: > 260 µM (inactive)

## COCCNC(=O)CSC1=N/C(=C/c2ccc(Cl)c(Cl)c2)C(=O)N1c1ccccc1F
[6]
  CC50: 47.8 µM (active)
[7]
  EC50: 20 µM (active)
INS1
  AC50: 8.64 µM (active)

## COc1ccc(-[n+]2c(-c3ccc(Br)cc3)cn3c2CCCCC3)cc1
[8]
  EC50: 0.552 µM (active)
[9]
  EC50: > 60 µM (not active)
INS1
  AC50: 1.15 µM (active)

## Cc1nc2cc(NC(=O)c3ccc(S(=O)(=O)N(C)c4ccccc4)cc3)ccc2o1
[1]
  EC50: 26 µM (active)
[2]
  EC50: 23.9 µM (active)
H4
  EC50: 15.1 µM (active)

## O=c1c(-c2ccc3c(c2)OCCO3)coc2cc(O)cc(O)c12
[5]
  EC50: 19.2 µM (active)

## c1ccc2oc(C3=NN=C(NC4CC4)SC3)cc2c1
[1]
  EC50: > 120 µM (not active)
[2]
  EC50: > 120 µM (not active)
H4
  EC50: > 120 µM (not active)

## Cc1cc(S(=O)(=O)Nc2ccc(C(=O)NCC(C)(C)N3CCOCC3)cc2)ccc1F
[7]
  EC50: > 195 µM (not active)
[3]
  IC50: > 47.1 µM (inactive)
[4]
  EC50: > 53 µM (inactive)

## Cc1ccc(S(=O)(=O)N(CC(=O)N=Nc2c(O)[nH]c3ccccc23)c2ccc(C)c(C)c2)cc1
[3]
  IC50: 3.25 µM (active)
[4]
  EC50: > 53 µM (inactive)

## O=c1[nH]c2ccccc2n1CCC1CCCCC1
[5]
  EC50: > 260 µM (inactive)

## COc1ccc(CN2CC(=O)N(c3cccc(Cl)c3)C2=S)cc1OC
[3]
  IC50: > 47.1 µM (inactive)
[4]
  EC50: > 53 µM (inactive)

## Cc1cc(N(C)C)c(C#N)c(NCc2ccccc2)n1
[5]
  EC50: > 260 µM (inactive)

## Cc1cc(Cl)ccc1C(=O)C1CCCN(C(=O)c2cnsn2)C1 (stereo unspecified)
[5]
  EC50: > 260 µM (inactive)

## Cc1ccc(C)c(N2CCN(C(=O)CCCOc3cc(=O)n(C)c4ccccc34)CC2)c1
INS1
  AC50: 2.78 µM (active)

## CCCC12C(=O)C(C)(C(c3ccccc3)=C1c1ccccc1)C1C(=O)N(c3ccc(C)cc3)C(=O)C12 (stereo unspecified)
INS1
  AC50: 4.16 µM (active)

## Cc1nc(SCC(=O)c2cccs2)c2oc3ccccc3c2n1
[1]
  EC50: 21.5 µM (active)
[2]
  EC50: 16 µM (active)
[10]
  EC50: 21.2 µM (active)
H4
  EC50: 68 µM (active)
Streptokinase A
  EC50: > 150 µM (not active)
Streptococcus
  EC50: 20.1 µM (active)

## CC(C)N(Cc1nc(-c2ccc(Cl)cc2)no1)C(=O)CN(C)S(=O)(=O)c1ccc(Cl)cc1
[8]
  EC50: 2.71 µM (active)
[9]
  EC50: > 60 µM (not active)
[5]
  EC50: > 260 µM (inactive)

## Nc1c(C(=O)N2CCOCC2)sc2nc3c(cc12)CCC3
[3]
  IC50: > 47.1 µM (inactive)
[4]
  EC50: > 53 µM (inactive)

## COc1ccc(-c2nnc3c4ccccc4c(C)nn23)cc1
[1]
  EC50: 13.3 µM (active)
[2]
  EC50: 18.6 µM (active)
H4
  EC50: > 120 µM (not active)

## C=CCn1c(SCC(=O)NC2CCCC2)nc2scc(-c3ccco3)c2c1=O
[5]
  EC50: > 260 µM (inactive)

## OC1(C(F)(F)F)CC(O)(C(F)(F)F)n2nc(-c3ccccc3)cc2N1 (stereo unspecified)
[1]
  EC50: > 120 µM (not active)
[2]
  EC50: > 120 µM (not active)
H4
  EC50: 11 µM (active)

## Cc1nc2ccc(Br)cc2c(=O)n1Cc1cccs1
[5]
  EC50: > 260 µM (inactive)

## Cc1nc2scc(-c3ccc(Cl)cc3)c2c(=O)n1N
[5]
  EC50: > 260 µM (inactive)

## Cc1cccc(N=C(S)N(CCN(C)C)C(C)c2cccnc2)c1 (stereo unspecified)
[5]
  EC50: > 260 µM (inactive)

## CSC1=NCCN1C(=O)Cc1ccc(Cl)cc1
[3]
  IC50: > 47.1 µM (inactive)
[4]
  EC50: > 53 µM (inactive)

## O=C1N=C(N/N=C/c2ccc(F)cc2)SC1c1ccccc1 (stereo unspecified)
[3]
  IC50: > 47.1 µM (inactive)
[4]
  EC50: > 53 µM (inactive)

## Cc1nn2c3ccccc3nc2n(C)c1=O
[3]
  IC50: > 47.1 µM (inactive)
[4]
  EC50: > 53 µM (inactive)

## C[C@@H]1CCCCO[C@@H](CN(C)Cc2ccc(C(F)(F)F)cc2)[C@H](C)CN([C@@H](C)CO)C(=O)c2cc(NS(=O)(=O)c3ccccc3)ccc2O1
Paired box protein Pax-8
  AC50: 4.66 µM (active)

## COc1ccc(/N=C/C=C2\C=C(c3ccccc3)OC(C)(C)O2)cc1
[1]
  EC50: > 120 µM (not active)
[2]
  EC50: 10.2 µM (active)
H4
  EC50: > 120 µM (not active)

## O=C(Nc1ccc(Cl)c(Cl)c1)O/N=C/c1ccncc1
[10]
  EC50: 1.75 µM (active)
Streptokinase A
  EC50: > 150 µM (not active)
Streptococcus
  EC50: 36.5 µM (active)
[11]
  AC50: 5.98 µM (active)
cells
  IC50: 9.54 µM (active)

## CO/C(O)=C1\C(C)=NC(=S)NC1c1ccc(-c2cccc(Cl)c2)o1 (stereo unspecified)
[5]
  EC50: > 260 µM (inactive)

## CCCCC/N=C(/C)c1c(O)oc2ccccc2c1=O
[1]
  EC50: > 120 µM (not active)
[2]
  EC50: 61.4 µM (active)
H4
  EC50: 9.36 µM (active)

## CC(C)=CCc1cc2c(=O)c3c(O)c4c(cc3oc2c(O)c1O)OC(C)C4(C)C (stereo unspecified) [GERONTOXANTHONE G]
[12]
  EC50: > 160 µM (inactive)
[13]
  EC50: > 38 µM (not active)
[8]
  EC50: 2.64 µM (active)
[9]
  EC50: 6.31 µM (active)
INS1
  AC50: 5.18 µM (active)

## O=C(NC1CCCCC1)NS(=O)(=O)c1ccc2c(c1)CCC2 [GLYHEXAMIDE]
[3]
  IC50: > 47.1 µM (inactive)
[4]
  EC50: > 53 µM (inactive)

## CC(=O)/N=c1/sc(S(N)(=O)=O)nn1C [METHAZOLAMIDE]
[3]
  IC50: > 47.1 µM (inactive)
[4]
  EC50: > 53 µM (inactive)
Cytochrome P450 2C9
  AC50: 12.6 µM (inconclusive)
